{"source": "ChEMBL document CHEMBL4765432", "about": "“Design and synthesis of novel Flavone-based histone deacetylase inhibitors antagonizing activation of STAT3 in breast cancer” (Eur J Med Chem, 2020)", "key": {"[1]": {"tested_on": "4T1", "test": "Induction of cell cycle arrest in mouse 4T1 cells assessed as G2/M phase accumulation at 1 uM incubated for 24 hrs by PI staining based flow cytometry analysis (reference value: 38.51 %)", "type": "functional"}, "[2]": {"tested_on": "MCF7", "test": "Potency index, ratio of IC50 of SAHA to IC50 of compound for cytotoxicity against human MCF7 cells assessed as reduction in cell viability incubated for 48 hrs by MTT assay", "type": "functional"}, "[3]": {"target": "Histone deacetylase 5 (Homo sapiens, UniProt Q9UQL6)", "sequence (Q9UQL6 whole entry)": "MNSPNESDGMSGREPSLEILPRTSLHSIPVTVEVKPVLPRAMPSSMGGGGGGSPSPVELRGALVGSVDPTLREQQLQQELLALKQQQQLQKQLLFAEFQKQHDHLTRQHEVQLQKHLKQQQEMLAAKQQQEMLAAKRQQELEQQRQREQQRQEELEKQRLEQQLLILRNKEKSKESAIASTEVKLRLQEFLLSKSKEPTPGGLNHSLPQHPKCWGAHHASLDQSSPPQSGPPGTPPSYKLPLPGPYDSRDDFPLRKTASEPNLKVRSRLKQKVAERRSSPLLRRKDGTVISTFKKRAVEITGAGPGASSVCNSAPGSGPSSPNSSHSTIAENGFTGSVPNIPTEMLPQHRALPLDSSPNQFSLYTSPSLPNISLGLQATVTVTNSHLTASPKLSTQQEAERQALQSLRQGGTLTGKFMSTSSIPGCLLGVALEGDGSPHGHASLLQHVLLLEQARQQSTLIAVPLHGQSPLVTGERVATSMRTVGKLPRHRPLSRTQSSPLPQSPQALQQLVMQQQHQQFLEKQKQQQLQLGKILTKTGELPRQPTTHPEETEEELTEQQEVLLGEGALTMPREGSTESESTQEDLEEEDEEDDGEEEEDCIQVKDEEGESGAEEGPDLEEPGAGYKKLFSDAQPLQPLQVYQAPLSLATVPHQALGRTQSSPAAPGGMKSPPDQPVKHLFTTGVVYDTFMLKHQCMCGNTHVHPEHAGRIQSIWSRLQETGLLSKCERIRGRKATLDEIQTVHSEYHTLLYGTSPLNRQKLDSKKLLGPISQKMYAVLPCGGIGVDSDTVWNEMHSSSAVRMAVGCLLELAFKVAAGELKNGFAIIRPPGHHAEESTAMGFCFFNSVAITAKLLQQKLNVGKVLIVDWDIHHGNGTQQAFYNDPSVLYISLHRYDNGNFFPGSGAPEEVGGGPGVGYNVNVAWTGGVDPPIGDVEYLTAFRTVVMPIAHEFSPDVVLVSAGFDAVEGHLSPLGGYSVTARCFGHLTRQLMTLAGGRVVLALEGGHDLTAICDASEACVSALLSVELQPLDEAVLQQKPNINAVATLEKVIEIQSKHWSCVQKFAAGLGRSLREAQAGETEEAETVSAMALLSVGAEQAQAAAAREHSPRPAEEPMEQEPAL", "test": "Inhibition of recombinant human N-terminal GST-tagged HDAC-5 (617 to end residues) expressed in baculovirus infected in Sf9 cells using Boc-Lys (q-Ac)-AMC as substrate incubated for 10 mins followed by substrate addition and measured after 30 mins by fluorescence based assay"}, "[4]": {"test": "Cytotoxicity against human B16-F10 cells assessed as reduction in cell viability incubated for 48 hrs by MTT assay", "type": "functional, cell-based", "conditions": "B16-F10, 48 h"}, "[5]": {"tested_on": "4T1", "test": "Induction of apoptosis in mouse 4T1 cells implanted in BALB/c mouse assessed as increase in caspase-3 cleavage by immunohistochemistry method", "type": "functional, cell-based"}, "[6]": {"test": "Toxicity in BALB/c mouse xenografted with human MDA-MB-231 cells assessed as effect on body weight at 25 mg/kg, ip administered for 34 days and measured on day 34", "type": "organism-based", "conditions": "in vivo, 816 h, time 34 day"}, "[7]": {"tested_on": "4T1", "test": "Induction of apoptosis in mouse 4T1 cells assessed as viable cells at 2.5 uM incubated for 72 hrs by annexinV-FITC and PI staining based flow cytometry analysis (reference value: 91.1 %)", "type": "functional", "conditions": "read-out: Activity"}, "[8]": {"tested_on": "4T1", "test": "Induction of apoptosis in mouse 4T1 cells assessed as early apoptotic cells at 2.5 uM incubated for 72 hrs by annexinV-FITC and PI staining based flow cytometry analysis (reference value: 1.65 %)", "type": "functional"}, "[9]": {"tested_on": "MDA-MB-231", "test": "Induction of apoptosis in human MDA-MB-231 cells assessed as late apoptotic cells at 1 uM incubated for 72 hrs by annexinV-FITC and PI staining based flow cytometry analysis (reference value: 3.79 %)", "type": "functional"}, "[10]": {"tested_on": "MDA-MB-231", "test": "Induction of apoptosis in human MDA-MB-231 cells xenografted in BALB/c mouse assessed as increase in caspase-3 cleavage by immunohistochemistry method", "type": "functional, cell-based"}, "[11]": {"tested_on": "HepG2", "test": "Cytotoxicity against human HepG2 cells assessed as reduction in cell viability incubated for 48 hrs by MTT assay", "type": "functional, cell-based", "conditions": "HepG2, 48 h"}, "[12]": {"tested_on": "BT-549", "test": "Cytotoxicity against human BT-549 cells assessed as reduction in cell viability incubated for 48 hrs by MTT assay", "type": "functional, cell-based", "conditions": "BT-549, 48 h"}, "[13]": {"test": "Cmax in Sprague-Dawley rat at 20 mg/kg, iv measured upto 12 hrs by LC-MS/MS analysis", "type": "ADME, organism-based", "parameters": "route intravenous, dose 20 mg/kg, time <=12", "conditions": "in vivo"}, "[14]": {"tested_on": "4T1", "test": "Induction of cell cycle arrest in mouse 4T1 cells assessed as S phase accumulation at 1 uM incubated for 24 hrs by PI staining based flow cytometry analysis (reference value: 19.43 %)", "type": "functional"}, "[15]": {"tested_on": "MDA-MB-231", "test": "Induction of apoptosis in human MDA-MB-231 cells assessed as viable cells at 1 uM incubated for 72 hrs by annexinV-FITC and PI staining based flow cytometry analysis (reference value: 90.3 %)", "type": "functional", "conditions": "read-out: Activity"}, "[16]": {"target": "Histone deacetylase 8 (Homo sapiens, UniProt Q9BY41)", "sequence (Q9BY41 whole entry)": "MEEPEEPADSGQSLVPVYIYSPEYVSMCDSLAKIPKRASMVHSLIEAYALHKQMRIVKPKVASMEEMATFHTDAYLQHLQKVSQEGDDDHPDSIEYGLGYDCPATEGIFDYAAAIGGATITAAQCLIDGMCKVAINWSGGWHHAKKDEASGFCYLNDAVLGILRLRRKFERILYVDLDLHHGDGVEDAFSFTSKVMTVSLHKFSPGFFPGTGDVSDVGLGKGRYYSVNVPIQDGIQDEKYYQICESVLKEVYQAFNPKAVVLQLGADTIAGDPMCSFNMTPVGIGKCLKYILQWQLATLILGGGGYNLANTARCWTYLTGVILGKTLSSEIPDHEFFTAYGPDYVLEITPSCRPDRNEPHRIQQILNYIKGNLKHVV", "test": "Inhibition of recombinant human N-terminal GST-tagged full length HDAC-8 expressed in baculovirus infected in Sf9 cells using Boc-Lys (q-Ac)-AMC as substrate incubated for 10 mins followed by substrate addition and measured after 30 mins by fluorescence based assay"}, "[17]": {"test": "Half life in Sprague-Dawley rat at 20 mg/kg, iv measured upto 12 hrs by LC-MS/MS analysis", "type": "ADME, organism-based", "conditions": "in vivo"}, "[18]": {"tested_on": "4T1", "test": "Induction of cell cycle arrest in mouse 4T1 cells assessed as increase in G0/G1 phase accumulation incubated for 24 hrs by flow cytometry analysis", "type": "functional, cell-based", "conditions": "dose 1-2 µM"}, "[19]": {"tested_on": "BT-549", "test": "Potency index, ratio of IC50 of SAHA to IC50 of compound for cytotoxicity against human BT-549 cells assessed as reduction in cell viability incubated for 48 hrs by MTT assay", "type": "functional"}, "[20]": {"tested_on": "MDA-MB-231", "test": "Induction of apoptosis in human MDA-MB-231 cells assessed as necrotic cells at 1 uM incubated for 72 hrs by annexinV-FITC and PI staining based flow cytometry analysis (reference value: 0.330 %)", "type": "functional"}, "[21]": {"tested_on": "MDA-MB-231", "test": "Induction of apoptosis in human MDA-MB-231 cells assessed as increase in caspase-3 cleavage incubated for 48 hrs by Western blot analysis", "type": "functional, cell-based", "conditions": "dose 0.5-10 µM"}, "[22]": {"tested_on": "MDA-MB-231", "test": "Induction of cell cycle arrest in human MDA-MB-231 cells assessed as S phase accumulation at 2 uM incubated for 24 hrs by PI staining based flow cytometry analysis (reference value: 43.82 %)", "type": "functional"}, "[23]": {"target": "Voltage-gated inwardly rectifying potassium channel KCNH2 (Homo sapiens, UniProt Q12809)", "sequence (Q12809 whole entry)": "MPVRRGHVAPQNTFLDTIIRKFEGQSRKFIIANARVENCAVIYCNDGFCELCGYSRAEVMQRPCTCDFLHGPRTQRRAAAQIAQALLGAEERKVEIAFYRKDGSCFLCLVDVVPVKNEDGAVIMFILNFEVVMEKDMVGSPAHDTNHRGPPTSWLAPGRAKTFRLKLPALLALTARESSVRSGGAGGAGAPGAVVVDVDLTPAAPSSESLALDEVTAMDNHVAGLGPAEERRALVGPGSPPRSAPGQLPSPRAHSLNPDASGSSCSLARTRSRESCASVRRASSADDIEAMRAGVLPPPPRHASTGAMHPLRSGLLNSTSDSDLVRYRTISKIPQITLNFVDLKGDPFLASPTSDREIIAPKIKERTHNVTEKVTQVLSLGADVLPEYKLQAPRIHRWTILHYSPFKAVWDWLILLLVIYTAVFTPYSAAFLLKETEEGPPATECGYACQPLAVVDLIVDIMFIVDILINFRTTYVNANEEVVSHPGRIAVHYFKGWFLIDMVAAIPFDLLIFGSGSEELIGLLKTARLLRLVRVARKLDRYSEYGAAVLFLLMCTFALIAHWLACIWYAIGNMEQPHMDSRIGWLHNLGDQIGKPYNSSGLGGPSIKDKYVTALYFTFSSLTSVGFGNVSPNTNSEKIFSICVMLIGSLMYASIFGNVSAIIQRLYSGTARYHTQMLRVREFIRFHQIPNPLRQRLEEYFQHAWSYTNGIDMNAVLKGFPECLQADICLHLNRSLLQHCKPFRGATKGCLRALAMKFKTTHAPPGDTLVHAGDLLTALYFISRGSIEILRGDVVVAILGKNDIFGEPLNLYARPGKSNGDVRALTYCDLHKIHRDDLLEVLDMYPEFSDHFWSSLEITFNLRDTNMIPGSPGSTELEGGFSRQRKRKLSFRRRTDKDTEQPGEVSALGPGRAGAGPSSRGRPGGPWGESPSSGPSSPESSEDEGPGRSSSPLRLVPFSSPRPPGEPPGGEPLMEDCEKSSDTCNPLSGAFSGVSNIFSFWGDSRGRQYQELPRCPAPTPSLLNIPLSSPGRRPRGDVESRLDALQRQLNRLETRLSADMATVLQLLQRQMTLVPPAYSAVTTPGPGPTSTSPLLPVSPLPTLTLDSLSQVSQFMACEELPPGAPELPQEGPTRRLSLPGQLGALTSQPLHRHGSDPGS", "test": "Inhibition of human ERG"}, "[24]": {"test": "Toxicity in BALB/c mouse xenografted with mouse 4T1 cells assessed as effect on body weight at 20 mg/kg, ip administered for 22 days and measured on day 22", "type": "organism-based", "conditions": "in vivo, 528 h, time 22 day"}, "[25]": {"tested_on": "MDA-MB-231", "test": "Induction of apoptosis in human MDA-MB-231 cells assessed as early apoptotic cells at 2.5 uM incubated for 72 hrs by annexinV-FITC and PI staining based flow cytometry analysis (reference value: 5.57 %)", "type": "functional"}, "[26]": {"tested_on": "4T1", "test": "Induction of apoptosis in mouse 4T1 cells assessed as necrotic cells at 1 uM incubated for 72 hrs by annexinV-FITC and PI staining based flow cytometry analysis (reference value: 5.00 %)", "type": "functional"}, "[27]": {"tested_on": "4T1", "test": "Induction of apoptosis in mouse 4T1 cells assessed as late apoptotic cells at 5 uM incubated for 72 hrs by annexinV-FITC and PI staining based flow cytometry analysis (reference value: 2.24 %)", "type": "functional"}, "[28]": {"tested_on": "4T1", "test": "Induction of apoptosis in mouse 4T1 cells assessed as late apoptotic cells at 1 uM incubated for 72 hrs by annexinV-FITC and PI staining based flow cytometry analysis (reference value: 2.24 %)", "type": "functional"}, "[29]": {"tested_on": "4T1", "test": "Induction of apoptosis in mouse 4T1 cells assessed as necrotic cells at 2.5 uM incubated for 72 hrs by annexinV-FITC and PI staining based flow cytometry analysis (reference value: 5.00 %)", "type": "functional"}, "[30]": {"tested_on": "MCF7", "test": "Cytotoxicity against human MCF7 cells assessed as reduction in cell viability incubated for 48 hrs by MTT assay", "type": "functional, cell-based", "conditions": "MCF7, 48 h"}, "[31]": {"tested_on": "4T1", "test": "Induction of apoptosis in mouse 4T1 cells assessed as viable cells at 1 uM incubated for 72 hrs by annexinV-FITC and PI staining based flow cytometry analysis (reference value: 91.1 %)", "type": "functional", "conditions": "read-out: Activity"}, "[32]": {"tested_on": "MDA-MB-231", "test": "Induction of cell cycle arrest in human MDA-MB-231 cells assessed as G2/M phase accumulation at 1 uM incubated for 24 hrs by PI staining based flow cytometry analysis (reference value: 27.08 %)", "type": "functional"}, "[33]": {"tested_on": "MDA-MB-231", "test": "Induction of apoptosis in human MDA-MB-231 cells assessed as necrotic cells at 2.5 uM incubated for 72 hrs by annexinV-FITC and PI staining based flow cytometry analysis (reference value: 0.330 %)", "type": "functional"}, "[34]": {"tested_on": "MDA-MB-231", "test": "Induction of apoptosis in human MDA-MB-231 cells assessed as effect on p53 expression at 0.5 to 10 uM incubated for 48 hrs by Western blot analysis", "type": "functional, cell-based", "conditions": "dose 0.5-10 µM"}}, "note": "Active and inactive are the calls of the source. The rule behind the calls is not given here.", "data": [{"smiles": "CN(C)CCOc1ccc(-c2cc(=O)c3c(O)cc(OCCCCCC(=O)NO)cc3o2)cc1.Cl", "values": [{"measurement": "Activity", "setting": "[1]", "result": 19.39, "unit": "%"}, {"measurement": "Ratio IC50", "setting": "[2]", "result": 2}, {"measurement": "IC50", "setting": "[3]", "result": "> 10", "unit": "µM"}, {"measurement": "IC50", "setting": "[4]", "result": 0.51, "unit": "µM"}, {"measurement": "Activity", "setting": "[5]", "result": "Active"}, {"measurement": "Activity", "setting": "[6]", "result": "Non-Toxic"}, {"measurement": "viability at 2.5 µM", "setting": "[7]", "result": 32.9, "unit": "%"}, {"measurement": "Activity", "setting": "[8]", "result": 31.4, "unit": "%"}, {"measurement": "Activity", "setting": "[9]", "result": 12, "unit": "%"}, {"measurement": "Activity", "setting": "[10]", "result": "Active"}, {"measurement": "IC50", "setting": "[11]", "result": 1.16, "unit": "µM"}, {"measurement": "IC50", "setting": "[12]", "result": 4.13, "unit": "µM"}, {"measurement": "Cmax", "setting": "[13]", "result": 2180, "unit": "ng/mL"}, {"measurement": "Activity", "setting": "[14]", "result": 30.99, "unit": "%"}, {"measurement": "viability at 1 µM", "setting": "[15]", "result": 64.8, "unit": "%"}, {"measurement": "IC50", "setting": "[16]", "result": 2.5, "unit": "µM"}, {"measurement": "half-life", "setting": "[17]", "result": 1.42, "unit": "h"}, {"measurement": "Activity", "setting": "[18]", "result": "Dose-dependent effect"}, {"measurement": "Ratio IC50", "setting": "[19]", "result": 2}, {"measurement": "Activity", "setting": "[20]", "result": 0.13, "unit": "%"}, {"measurement": "Activity", "setting": "[21]", "result": "Dose-dependent effect"}, {"measurement": "Activity", "setting": "[22]", "result": 10.21, "unit": "%"}, {"measurement": "IC50", "setting": "[23]", "result": 1.2, "unit": "µM"}, {"measurement": "Activity", "setting": "[24]", "result": "Non-Toxic"}, {"measurement": "Activity", "setting": "[25]", "result": 50.1, "unit": "%"}, {"measurement": "Activity", "setting": "[26]", "result": 3.6, "unit": "%"}, {"measurement": "Activity", "setting": "[27]", "result": 21.9, "unit": "%"}, {"measurement": "Activity", "setting": "[28]", "result": 8.59, "unit": "%"}, {"measurement": "Activity", "setting": "[29]", "result": 1.8, "unit": "%"}, {"measurement": "IC50", "setting": "[30]", "result": 4.7, "unit": "µM"}, {"measurement": "viability at 1 µM", "setting": "[31]", "result": 72.3, "unit": "%"}, {"measurement": "Activity", "setting": "[32]", "result": 42.82, "unit": "%"}, {"measurement": "Activity", "setting": "[33]", "result": 0.11, "unit": "%"}, {"measurement": "Activity", "setting": "[34]", "result": "inactive"}]}]}
